How the values were obtained:
[1] = Plasma protein binding rate test (equilibrium dialysis), mouse; format: in vitro ADME, CD-1 mice; settings: 2 μM, equilibrium dialysis 37° C. 4 hours, CD-1 mouse plasma
Method: (§1) Experimental purpose: To evaluate the protein binding rate of the compounds of the present disclosure in the plasma of CD-1 mice, SD rats, beagle dogs, cynomolgus monkeys and humans using equilibrium dialysis.
(§2) The test compounds were diluted with dialysis buffer into the plasma of the above five species to prepare samples with a final concentration of 2 μM. The samples were then added to a 96-well equilibrium dialysis device and dialyzed using phosphate buffered saline solution at 37° C. for 4 hours. Warfarin was used as a control compound in the experiment. The concentration of the test compounds and warfarin in the plasma and buffer was determined using LC-MS/MS. The free fraction of the compound was calculated by the following formula: PPB_Unbound (%)=100*FC/TC, where FC is the concentration of the compound at the buffer end of the dialysis plate; TC is the concentration of the compound at the plasma end of the dialysis plate; To is the concentration of the compound in the plasma sample at time zero.

[2] = Plasma protein binding rate test (equilibrium dialysis), cynomolgus monkey; format: in vitro ADME, cynomolgus monkeys; settings: 2 μM, equilibrium dialysis 37° C. 4 hours
Method: as §1, §2

[3] = Plasma protein binding rate test (equilibrium dialysis), human; format: in vitro ADME; settings: 2 μM, equilibrium dialysis 37° C. 4 hours
Method: as §1, §2

[4] = Plasma protein binding rate test (equilibrium dialysis), rat; format: in vitro ADME, SD rats; settings: 2 μM, equilibrium dialysis 37° C. 4 hours, SD rat plasma
Method: as §1, §2

[5] = Plasma protein binding rate test (equilibrium dialysis), dog; format: in vitro ADME, beagle dogs; settings: 2 μM, equilibrium dialysis 37° C. 4 hours, beagle dog plasma
Method: as §1, §2

Caco-2 cells = assay: In vitro Caco-2 cell permeability test; format: in vitro ADME; settings: Caco-2, 2 μM, 120 minutes; for Apparent permeability coefficient: pH 7.40, direction not given; for Efflux ratio: Papp(BA)/Papp(AB)
Method: Cell culture was performed using MEM (minimum essential medium) supplemented with 2 mM L-glutamine, 10% fetal bovine serum (FBS), 100 U/mL penicillin-G and 100 μg/mL streptomycin. Cell culture conditions were 37±1° C., 5% CO2 and saturated humidity. When the cells reached a density of 80 to 90%, trypsin (0.05%, w/v)/EDTA (0.02%, w/v) digestion solution was added to digest the cells before seeding the plate. Cells were seeded in BD Falcon Transwell-96 well plates at a seeding density of 1×10^5 cells/cm^2. The cells were incubated in a carbon dioxide incubator for 22 days and then used for transport experiments.
Hank's balanced salt buffer (pH 7.40±0.05) containing 10 mM HEPES was used as the transport buffer in this project. The bidirectional transport of the test compound and the positive drug digoxin was tested at a concentration of 2 μM, with two parallel samples each, and the transport of fenoterol and propranolol from the apical to the basal end (A-B) was tested. The concentration of DMSO in the incubation system was controlled to 1% or less. After loading the sample, the cell plate was incubated at 37±1° C., 5% CO2 and saturated humidity for 120 minutes. All samples were vortexed and centrifuged at 3220 rpm and 20° C. for 20 minutes. The control sample and test sample were diluted in a 1:1 (v/v) ratio with ultrapure water and stored at 4° C., and the analytical tests were performed by liquid chromatography tandem mass spectrometry (LC/MS/MS).
In this study, the liquid chromatography tandem mass spectrometry (LC/MS/MS) method was used to semi-quantitatively analyze the peak area ratios of the test compounds and control samples fenoterol, propranolol and digoxin to the internal standard in the starting solution, receiving solution and administration well supernatant. The apparent permeability coefficient (Papp, cm/s), efflux rate and recovery rate were calculated using the following formula: • (1) Papp=(dCr/dt)×Vr/(A×C0), dCr/dt is the cumulative concentration of the compound at the receiving end per unit time (μM/s); Vr is the volume of the solution at the receiving end (0.075 mL and 0.250 mL for the solution at the apical and basal ends, respectively); A is the relative surface area of the cell monolayer (0.0804 cm^2); C0 is the starting concentration (nM) of the test sample at the administration end or the peak area ratio of the control sample. • (2) Efflux ratio=Papp(BA)/Papp(AB) • (3) Recovery rate (%)=100×[(Vr×Cr)+(Vd×Cd)]/(Vd×C0), C0 is the starting concentration (nM) of the test sample at the administration end or the peak area ratio of the control sample; Vd is the volume at the administration end (0.075 mL on the apical side and 0.250 mL on the basal side); Cd and Cr are the final concentration (nM) of the test sample or the peak area ratio of the control sample at the administration and receiving ends, respectively.

[6] = target: human complement Factor B protein (Homo sapiens (Human), UniProt P00751); assay: Complement human Factor B protein binding test (SPR method); settings: Biacore 8K, 1:1 Binding Kinetics Model
Method: Experimental purpose: To detect the kinetic constants and affinity of the binding between the test compounds and human complement Factor B using the SPR method.
1-Ethyl-3-(3-dimethylaminopropyl) carbodiimide hydrochloride (EDC) and N-hydroxysulfosuccinimide sodium salt (NHS) were mixed in a 1:1 ratio, and complement Factor B was diluted to 20 μg/mL in acetic acid solution with a pH of 5.5. Using a biomacromolecule interaction analyzer Biacore 8K, the programmed settings were set to add the EDC/NHS, the FB protein solution and the 1 M ethanolamine-hydrochloric acid solution to the detection plate. The detection plate was placed in the machine detection chamber, and the EDC/NHS mixture, the complement Factor B protein solution and the 1 M ethanolamine-hydrochloric acid solution were sequentially injected onto the surface of the CM5 chip according to the procedure for chip activation, ligand coupling and deactivation. The flow cell 1 of each channel was used as a reference channel for surface activation and deactivation only, without injection of complement Factor B protein solution. All sample stock solutions were diluted with running buffer (PBST), and all samples were serially diluted 2 times in duplicate for 6 points. The prepared sample was transferred to the detection plate according to the program settings and the detection plate was placed in the sample chamber of Biacore 8K. The detection program was run, and the samples were injected into each channel of the chip sequentially according to the program, with a binding time of 120 s, a dissociation time of 600 s and a flow rate of 30 μL/min. The data were analyzed using Biacore Insight Evaluation Software: The data were fitted using a 1:1 Binding Kinetics Model to obtain the binding rate constant (kon), dissociation rate constant (koff) and dissociation equilibrium constant (KD) for binding of each test sample to complement Factor B protein.

[7] = In vitro liver microsomal stability test; format: in vitro ADME, human; settings: 1 μM compound, 0.5 mg/mL liver microsomes, NADPH
Method: Liver microsomes: purchased from Corning or Xenotech, stored in a −80° C. refrigerator; reduced nicotinamide adenine dinucleotide phosphate (NADPH), supplier: Chem-Impex International, Cat. No.: 00616; control compounds: testosterone, diclofenac, propafenone.
Stock solution: 10 mM DMSO solution; preparation of working concentration: The stock solution was diluted to 100 μM using 100% acetonitrile (organic phase content: 99% acetonitrile, 1% DMSO).
Two 96-well incubation plates were prepared and named as T60 incubation plate and NCF60 incubation plate.
445 μL of microsomal working solution (liver microsomal protein concentration of 0.56 mg/mL) was added to both the T60 incubation plate and the NCF60 incubation plate. The two incubation plates were pre-incubated in a 37° C. water bath for approximately 10 minutes.
After pre-incubation was completed, 5 μL of the test compound or control compound working solution was added to both the T60 incubation plate and the NCF60 incubation plate and mixed well. 50 μL of potassium phosphate buffer per well was added to the NCF60 incubation plate to initiate the reaction. 180 μL of termination solution (acetonitrile solution containing 200 ng/mL tolbutamide and 200 ng/mL labetalol) and 6 μL of NADPH regeneration system working solution were added to a TO termination plate. […]

[8] = Pharmacokinetic study in rats; format: in vivo, Male SD rats; settings: rat; for F: PO 10 mpk vs IV 1 mpk
Method: Male SD rats (6 to 8 weeks old, weighing 200 to 300 g) were selected.
Injection administration (IV) was carried out at a dose of 1 mpk and a concentration of 0.20 mg/mL with a vehicle of 20% PEG400/10% solutol/70% water. Oral administration (PO) was carried out at a dose of 10 mpk and a concentration of 1 mg/mL with a vehicle of 20% PEG400/10% solutol/70% water.
Sample collection: 0.03 mL of blood samples were collected by puncture of the saphenous vein in experimental animals at each time point, and the actual blood collection time was recorded.
All blood samples were added to commercial 1.5 mL EDTA-K2 anticoagulant tubes. After blood sample collection, DDV was added into the plasma matrix as a stabilizer, wherein the ratio of plasma to Dichlorvos (DDV) solution was 40:1. The DDV solution was a 40 mM DDV solution in acetonitrile/water (1:1). Within half an hour, the mixture was centrifuged at 4° C. and 3000 g for 10 minutes. The supernatant plasma was aspirated, quickly placed in dry ice and stored in a −80° C. refrigerator for LC-MS/MS analysis.
A non-compartmental model in Phoenix WinNonlin 6.3 pharmacokinetic software was used to process the plasma concentration data. The pharmacokinetic parameters were calculated using the linear-log trapezoidal method. C0: concentration needed immediately after intravenous injection; Cmax: the highest plasma drug concentration after administration; Tmax: time needed to reach drug peak concentration after administration; T1/2: time needed for plasma drug concentration to decrease by half; Vdss: apparent volume of distribution, refers to the proportional constant between the amount of drug in the body and the plasma drug concentration when the drug reaches dynamic equilibrium in the body. Cl: clearance rate, refers to the apparent volume of distribution of the drug cleared from the body per unit time; AUC0-last: area under the drug time curve, refers to the area surrounded by the plasma drug concentration curve against the time axis; F: bioavailability.

Sequence of human complement Factor B protein (P00751 26-764): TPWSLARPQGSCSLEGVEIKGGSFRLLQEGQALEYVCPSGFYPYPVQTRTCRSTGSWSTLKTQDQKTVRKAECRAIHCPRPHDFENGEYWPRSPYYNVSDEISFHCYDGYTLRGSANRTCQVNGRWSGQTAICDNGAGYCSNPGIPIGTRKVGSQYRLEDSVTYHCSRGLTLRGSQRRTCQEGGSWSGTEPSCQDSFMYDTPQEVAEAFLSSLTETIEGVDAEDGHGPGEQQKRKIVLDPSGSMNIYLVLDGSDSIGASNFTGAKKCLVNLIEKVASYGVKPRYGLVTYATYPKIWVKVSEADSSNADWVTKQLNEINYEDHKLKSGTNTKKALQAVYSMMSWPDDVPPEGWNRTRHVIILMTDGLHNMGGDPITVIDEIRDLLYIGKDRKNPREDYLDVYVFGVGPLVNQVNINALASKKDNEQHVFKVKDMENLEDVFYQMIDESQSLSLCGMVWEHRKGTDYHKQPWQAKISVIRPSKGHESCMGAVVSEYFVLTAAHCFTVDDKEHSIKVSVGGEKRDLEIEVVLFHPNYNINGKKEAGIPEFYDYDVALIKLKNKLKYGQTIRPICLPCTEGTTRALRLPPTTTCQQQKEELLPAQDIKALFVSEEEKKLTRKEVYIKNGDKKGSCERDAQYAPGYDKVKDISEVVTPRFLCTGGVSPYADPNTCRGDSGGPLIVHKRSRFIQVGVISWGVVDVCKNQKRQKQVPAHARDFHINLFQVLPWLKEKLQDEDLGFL

| Plasma protein binding (PPB) unbound, Mouse (M) [1] [%] | Plasma protein binding (PPB) unbound, Cynomolgus monkey (C) [2] [%] | Plasma protein binding (PPB) unbound, Human (H) [3] [%] | Plasma protein binding (PPB) unbound, Rat (R) [4] [%] | Plasma protein binding (PPB) unbound, Dog (D) [5] [%] | Apparent permeability coefficient (Caco-2 cells) | Efflux ratio (Caco-2 cells) | Kd [6] [nM] | Human liver microsomal stability CLint [7] [mL/min/kg] | AUC0-last ([8]; IV 1 mpk) [µM·h] | C0 ([8]; IV 1 mpk) [µM] | Cl ([8]; IV 1 mpk) [mL/min/kg] | T1/2 ([8]; IV 1 mpk) [h] | Vdss ([8]; IV 1 mpk) [L/kg] | AUC0-last ([8]; PO 10 mpk) [µM·h] | Cmax ([8]; PO 10 mpk) [µM] | T1/2 ([8]; PO 10 mpk) [h] | Tmax ([8]; PO 10 mpk) [h] | F [8] [%] | SMILES |
| --- | --- | --- | --- | --- | --- | --- | --- | --- | --- | --- | --- | --- | --- | --- | --- | --- | --- | --- | --- |
| 12.5 | 17.4 | 13.3 | 11.6 | 16.2 | 1.19 10^−6 cm/s | 26.1 | < 100 | <15 | – | – | – | – | – | – | – | – | – | – | CCSC1CC2CCC(c3ccc(C(=O)O)cc3)(C1)N2Cc1c(OC)cc(C)c2[nH]ccc12.O=CO (single isomer, unassigned) [Compound 1B] |
| 22.2 | 25.6 | 21.7 | 15.1 | 31.7 | 1.56 10^−6 cm/s | 15.8 | < 100 | – | 5.645 | 5.81 | 6.5 | 1.16 | 0.55 | 28.425 | 9.03 | 11.7 | 0.50 | 50.4 | COc1cc(C)c2[nH]ccc2c1CN1C2CCC1(c1ccc(C(=O)O)cc1)CC(SC)C2.O=CO (single isomer, unassigned) [Compound 2B] |
| 19.1 | 28.5 | 15.2 | 14.1 | 25.6 | 1.21 10^−6 cm/s | 22.6 | < 100 | <15 | 10.573 | 6.2 | 3.5 | 2.06 | 0.53 | 33.029 | 7.83 | 9.90 | 0.50 | 31.2 | COc1cc(C)c2[nH]ccc2c1CN1C2CCC1(c1ccc(C(=O)O)cc1)CC(C1CC1)C2 (single isomer, unassigned) [Compound 3B] |
| – | – | – | – | – | – | – | < 100 | – | – | – | – | – | – | – | – | – | – | – | CCS[C@H]1C[C@H]2CC[C@@](c3ccc(C(=O)O)cc3)(C1)N2Cc1c(OC)cc(C)c2[nH]ccc12 [Compound 1A] |
| – | – | – | – | – | – | – | < 100 | – | – | – | – | – | – | – | – | – | – | – | COc1cc(C)c2[nH]ccc2c1CN1[C@@H]2CC[C@@]1(c1ccc(C(=O)O)cc1)C[C@@H](SC)C2 [Compound 2A] |
| – | – | – | – | – | – | – | < 100 | – | – | – | – | – | – | – | – | – | – | – | COc1cc(C)c2[nH]ccc2c1CN1[C@@H]2CC[C@@]1(c1ccc(C(=O)O)cc1)C[C@H](C1CC1)C2 [Compound 3A] |
